Measured values taken from US20090087845A1, “Genetic Markers Of True Low Birth Weight” (priority 2005, published 2009).

System: placental gene expression
[1] = rat placenta, 0, 5%, 10% in drinking water
[2] = rat placenta, 5% in drinking water throughout pregnancy
[3] = rat placenta, 5% or 10% in drinking water throughout pregnancy, p<0.05 in both t-tests
[4] = rat placenta, 10% in drinking water throughout pregnancy

CCO [alcohol]
Mean 10%, Pex6 (1368264_at) (10% alcohol group, Mean Contr 6.259265): 5.303 | Mean 10%, St3gal3 (1373607_at) (10% alcohol group, Mean Contr 6.298338): 5.59 | Mean 10%, Kbtbd4_predicted (1374614_at) (10% alcohol group, Mean Contr 6.314496): 5.325 | Mean 10%, Phyh (1393245_at) (10% alcohol group, Mean Contr 6.483711): 5.227 | Mean 10%, LOC287533 (1373627_at) (10% alcohol group, Mean Contr 6.526312): 5.351 | Mean 10%, Transcribed locus (1388465_at) (10% alcohol group, Mean Contr 6.549543): 5.667 | Mean 10%, Mss4 (1376745_at) (10% alcohol group, Mean Contr 6.629539): 5.49 | Mean 10%, Plag1 (1391714_at) (10% alcohol group, Mean Contr 6.670053): 5.554 | Mean 10%, Sumf1_predicted (1389833_at) (10% alcohol group, Mean Contr 6.839621): 5.774 | Mean 10%, Polr3e_predicted (1374415_at) (10% alcohol group, Mean Contr 6.849002): 5.78 | Mean 10%, RGD1308959 (1399108_at) (10% alcohol group, Mean Contr 6.859582): 5.829 | Mean 10%, Wig1 (1387021_at) (10% alcohol group, Mean Contr 6.895168): 5.95 | Mean 10%, probe set 1379314_at (10% alcohol group, Mean Contr 6.970231): 5.514 | Mean 10%, Ddx59 (1383635_at) (10% alcohol group, Mean Contr 6.981191): 6.018 | Mean 10%, Rnd3 (1394077_at) (10% alcohol group, Mean Contr 7.018906): 6.069 | Mean 10%, probe set 1393037_at (10% alcohol group, Mean Contr 7.020197): 6.384 | Mean 10%, Slc39a4_predicted (1374366_at) (10% alcohol group, Mean Contr 7.252498): 5.652 | Mean 10%, RGD1305243_predicted (1374076_at) (10% alcohol group, Mean Contr 7.300542): 6.175 | Mean 10%, Transcribed locus (1393310_at) (10% alcohol group, Mean Contr 7.364799): 5.834 | Mean 10%, Gusb (1367901_at) (10% alcohol group, Mean Contr 7.420203): 6.432 | Mean 10%, probe set 1392953_at (10% alcohol group, Mean Contr 7.435411): 6.103 | Mean 10%, Crsp9_predicted (1377263_at) (10% alcohol group, Mean Contr 7.471023): 5.974 | Mean 10%, probe set 1389582_at (10% alcohol group, Mean Contr 7.588214): 6.297 | Mean 10%, Transcribed locus (1393226_at) (10% alcohol group, Mean Contr 7.705027): 6.077 | Mean 10%, RGD1565289_predicted (1375297_at) (10% alcohol group, Mean Contr 7.731478): 6.615 | Mean 10%, Zfp207 (1394591_at) (10% alcohol group, Mean Contr 8.125942): 6.769 | Mean 10%, Akr7a2 (1367843_at) (10% alcohol group, Mean Contr 8.276972): 6.866 | Mean 10%, Tparl (1373392_at) (10% alcohol group, Mean Contr 8.308305): 7.589 | Mean 10%, Mcts1 (1388660_at) (10% alcohol group, Mean Contr 8.623529): 7.771 | Mean 10%, Hadhsc (1370237_at) (10% alcohol group, Mean Contr 8.793343): 8.015 | Mean 10%, Asah1 (1374770_at) (10% alcohol group, Mean Contr 9.074708): 7.952 | Mean 10%, Arts1 (1368356_a_at) (10% alcohol group, Mean Contr 9.55972): 8.725 | Mean 10%, Ndufb5_predicted (1388304_at) (10% alcohol group, Mean Contr 10.12286): 9.267 | Mean 10%, MGC72992 (1389325_at) (10% alcohol group, Mean Contr 10.24563): 9.571 | Mean 10%, Vps35_mapped (1372806_at) (10% alcohol group, Mean Contr 10.46183): 9.969 | sig down and spec alc, Arts1 (1368356_a_at) (contr vs 5% vs 10% alcohol): YES | sig down and spec alc, Cdca7 (1374540_at) (contr vs 5% vs 10% alcohol): YES | sig down and spec alc, Centa2 (1369725_at) (contr vs 5% vs 10% alcohol): YES | sig down and spec alc, Crsp9_predicted (1377263_at) (contr vs 5% vs 10% alcohol): YES | sig down and spec alc, Cul2_predicted (1378127_at) (contr vs 5% vs 10% alcohol): YES | sig down and spec alc, Ddx59 (1383635_at) (contr vs 5% vs 10% alcohol): YES | sig down and spec alc, Ggps1 (1377866_a_at) (contr vs 5% vs 10% alcohol): YES | sig down and spec alc, Gusb (1367901_at) (contr vs 5% vs 10% alcohol): YES | sig down and spec alc, Hadhsc (1370237_at) (contr vs 5% vs 10% alcohol): YES | sig down and spec alc, Mcpt6 (1387334_at) (contr vs 5% vs 10% alcohol): YES | sig down and spec alc, Ndufb5_predicted (1388304_at) (contr vs 5% vs 10% alcohol): YES | sig down and spec alc, Pex6 (1368264_at) (contr vs 5% vs 10% alcohol): YES | sig down and spec alc, Prdm2_mapped (1381229_at) (contr vs 5% vs 10% alcohol): YES | sig down and spec alc, RGD1305243_predicted (1374076_at) (contr vs 5% vs 10% alcohol): YES | sig down and spec alc, RGD1565289_predicted (1375297_at) (contr vs 5% vs 10% alcohol): YES | sig down and spec alc, Tparl (1373392_at) (contr vs 5% vs 10% alcohol): YES | sig down and spec alc, Transcribed locus (1377021_at) (contr vs 5% vs 10% alcohol): YES | sig down and spec alc, Trp53rk_predicted (1379488_at) (contr vs 5% vs 10% alcohol): YES | sig down and spec alc, Vps35_mapped (1372806_at) (contr vs 5% vs 10% alcohol): YES | number of placental genes down-regulated after excluding genes overlapping with caloric restriction, high fat diet and SSRI (rat placenta): 35 genes | number of placental genes up-regulated after excluding genes overlapping with caloric restriction, high fat diet and SSRI (rat placenta): 7 genes | placental expression of TP53 regulating kinase (Trp53rk) [1]: down-regulated | placental expression of Zinc finger protein 365 (Zfp365) [1]: up-regulated | placental expression of cell division cycle associated 7 (Cdca7) [1]: down-regulated | placental expression of inositol polyphosphate-1-phosphatase (Inpp1) [1]: down-regulated | placental expression of peroxisomal biogenesis factor 6 (Pex6) [1]: down-regulated | placental expression of pleckstrin (Plek) [1]: down-regulated | Mean 5% expression, probe set 1370527_a_at (casein kinase 1, delta, Csnk1d) [2]: 9.839 | Mean 5% expression, probe set 1380351_at [2]: 4.282 | Mean 5% expression, probe set 1381613_at (Transcribed locus) [2]: 4.29 | Mean 5% expression, probe set 1384272_at (Zinc finger protein 365, Zfp365) [2]: 4.227 | Mean 5% expression, probe set 1384691_at (Transcribed locus, weakly similar to XP_577161.1) [2]: 4.65 | Mean 5% expression, probe set 1384793_at [2]: 4.485 | Mean 5% expression, probe set 1388932_at (laminin, alpha 5, Lama5) [2]: 9.683 | Mean 5% expression, probe set 1391879_at (Transcribed locus) [2]: 4.547 | number of probe sets up-regulated (0<5%<10% pattern) [3]: 8 probe sets | number of probe sets with reduced expression in exposed animals (0>5%>10% pattern) [3]: 57 probe sets | Mean 10% expression, probe set 1370527_a_at (casein kinase 1, delta, Csnk1d) [4]: 10.03 | Mean 10% expression, probe set 1380351_at [4]: 4.908 | Mean 10% expression, probe set 1381613_at (Transcribed locus) [4]: 4.634 | Mean 10% expression, probe set 1384272_at (Zinc finger protein 365, Zfp365) [4]: 4.517 | Mean 10% expression, probe set 1384691_at (Transcribed locus, weakly similar to XP_577161.1) [4]: 5.112 | Mean 10% expression, probe set 1384793_at [4]: 4.761 | Mean 10% expression, probe set 1388932_at (laminin, alpha 5, Lama5) [4]: 9.897 | Mean 10% expression, probe set 1391879_at (Transcribed locus) [4]: 4.937
